# Laboratory results taken from patent US20240408169A1 (priority 2023, published 2024).
# Where two headings read alike, the source gives them in different places. *1 amine or outer side, *2 acyl side, *3 side chain or, on linkers, in order; H or OH if unused. Where a SMILES comes first, the peptide text is derived from it. Bridges are numbered along the chain shown (N, C = ends). [ ]: non-standard residue; d: D form. The star is where a group is joined. X110 = CC(C)C(=O)N1[C@H]2CC[C@@H]1C=C(c1ccc(Cl)cc1C[C@@H](C(=O)[*:2])N(C)[*:1])C2; NMehhhLys(Me) = CN([C@@H](CCCCCCCN(C)[*:3])C(=O)[*:2])[*:1]; X64 = CN([C@@H](Cc1cc(Cl)ccc1OC1(C)CC1)C(=O)[*:2])[*:1]; NMe(hhhLys) = CN([C@@H](CCCCCCCN[*:3])C(=O)[*:2])[*:1]; cBuCO(3,3-F2-1-CF3) = O=C(C1(C(F)(F)F)CC(F)(F)C1)*; Pro(trans-4-F) = O=C(O)[C@@H]1C[C@@H](F)CN1; Gly(cPr) = N[C@H](C(=O)O)C1CC1
# Assays:
# [1] = from (S,Z)-2-((((9H-fluoren-9-yl)methoxy)carbonyl)(methyl)amino)-9-((S)-2-((S)-2-(12-azaneyl)-N,4-dimethylpentanamido)-3-(5-chloro-2-cyclopropoxypyridin-3-yl)-N-methylpropanamido)non-4-enoic acid TFA salt; amide bond; 16-membered ring; PyBOP/HOAt/DIEA; DCM; 2.6 mM; 25.0 °C
# [2] = molecular target: T1, CyclinB1/CDK1 (Homo sapiens, UniProt P14635); test: Fluorescence Polarization (FP) competitive binding assay, Cyclin B1/Cdk1;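 note: fluorescence polarization read after equilibration at room temperature, with IC50 taken from serially diluted dose-response curves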
# T1 construct: purchased Eurofins, discovery 14-450
# [3] = tested on: NCI-H1048 cells; test: MTT proliferation assay, NCI-H1048; format: cell-based; details: 5 days compound exposure, 1:3 serial dilution starting at 10 μM;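 note: Dose-response in 96-well plates over 8 or 10 concentration points, with exposure spanning 3-4 cell doublings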
# [4] = molecular target: T2, CyclinE1/CDK2 (Homo sapiens, UniProt P24864); test: Fluorescence Polarization (FP) competitive binding assay, Cyclin E1/Cdk2;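 note: readings taken after two-hour equilibration at room temperature in HEPES buffer with NaCl, DTT, NP-40 and BSA, IC50 fitted from eight-concentration serial dilution series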
# T2 construct: purchased Eurofins, discovery 14-475
# [5] = tested on: WI-38 cells; test: MTT proliferation assay, WI-38; format: cell-based; details: 3 days compound exposure, 1:3 serial dilution starting at 10 μM;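 note: Eight- or ten-point dilution series, with exposure length chosen to span about three to four cell doublings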
# [6] = tested on: OVCAR3 cells; test: MTT proliferation assay, OVCAR3; format: cell-based; details: 5 days compound exposure, 1:3 serial dilution starting at 10 μM;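 note: compound given as an 8- or 10-point series, one day after plating, with exposure covering roughly 3-4 cell doublings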
# [7] = molecular target: T3, CyclinA2/CDK2 (Homo sapiens, UniProt P20248); test: Fluorescence Polarization (FP) competitive binding assay, Cyclin A2/Cdk2;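 note: plates equilibrated two hours at room temperature before polarization reading, IC50 fitted from eight-concentration compound titration curves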
# T3 construct: purchased CRELUX Protein Services
# [8] = 10 nM Cyclin B1/Cdk1, 2 nM FAM probe; average of 2-3 independent experiments; read-out: Cyclin B FP IC50
# [9] = 10 nM Cyclin E1/Cdk2, 2 nM FAM probe, average of 2-3 independent experiments, read-out: Cyclin E FP IC50
# [10] = 8 nM Cyclin A2/Cdk2, 2 nM FAM probe, average of 2-3 independent experiments, read-out: Cyclin A FP IC50
SMILES,"IC50 [2, 8]",GI50 [3],"IC50 [4, 9]",GI50 [5],GI50 [6],"IC50 [7, 10]",also measured
CC(C)C[C@@H]1NC(=O)[C@@H](N(C)C(=O)[C@@H](NC(=O)OC(C)(C)C)C2CC2)CC=CCCCCN(C)C(=O)[C@H](Cc2cc(F)ccc2Br)N(C)C1=O,–,–,–,–,–,–,"ring closure, yield of all isomers (from C=CCCCCN(C)C(=O)[C@H](Cc1cc(F)ccc1Br)N(C)C(=O)[C@H](CC(C)C)NC(=O)[C@H](CC=C)N(C)C(=O)[C@@H](NC(=O)OC(C)(C)C)C1CC1, rcm bond, Hoveyda-Grubbs II, DCE, 6.3 mM, 70.0 °C): 67%"
CC(C)C[C@@H]1NC(=O)[C@@H](N(C)C(=O)OCC2c3ccccc3-c3ccccc32)C/C=C\CCCCN(C)C(=O)[C@H](Cc2cc(Cl)cnc2OC2CC2)N(C)C1=O,–,–,–,–,–,–,"ring closure, yield of all isomers (from CC(C)C[C@H](N)C(=O)N(C)[C@@H](Cc1cc(Cl)cnc1OC1CC1)C(=O)N(C)CCCC/C=C\C[C@@H](C(=O)O)N(C)C(=O)OCC1c2ccccc2-c2ccccc21, amide bond, PyBOP/HOAt/DIPEA, DCM, 2.57 mM, 25.0 °C): 30%"
CCN(C(=O)OC1c2ccccc2-c2ccccc21)[C@H]1C/C=C\CCCCN(C)C(=O)[C@H](Cc2cc(Cl)cnc2OC2CC2)N(C)C(=O)[C@H](CC(C)C)NC1=O,–,–,–,–,–,–,"ring closure, isolated yield [1]: 30%"
"CC(C)C[C@@H]1NC(=O)[C@@H](N(C)C(=O)[C@@H](NC(=O)[C@@H]2C[C@@H](F)CN2C(=O)C2(C(F)(F)F)CC(F)(F)C2)C2CC2)CCCCCCCN(C)C(=O)[C@H](Cc2cc(Cl)ccc2OC2(C)CC2)N(C)C1=O [Example 259] ({cBuCO(3,3-F2-1-CF3)}-[Pro(trans-4-F)][Gly(cPr)][NMehhhLys(Me)]L[X64]; lactam 3-C)",20 nM,110 nM,280 nM,10400 nM,110 nM,70 nM,–
CCN(C(=O)[C@@H](NC(=O)[C@@H]1C[C@@H](F)CN1C(=O)C1(C(F)(F)F)CC(F)(F)C1)C1CC1)[C@H]1CCCCCCCN(C)C(=O)[C@H](Cc2cc(Cl)cnc2OC2CC2)N(C)C(=O)[C@H](CC(C)C)NC1=O [Example 219],–,40 nM,–,14100 nM,80 nM,–,"IC50 ([2]; read-out: Cyclin B FP IC50; 10 nM Cyclin B1/Cdk1, 2 nM FAM probe; average of 2-3 independent experiments): 20 nM; IC50 [4]: 1430 nM; IC50 [7]: 100 nM"
"CC(C)C[C@@H]1NC(=O)[C@@H](N(C)C(=O)[C@@H](NC(=O)[C@@H]2C[C@@H](F)CN2C(=O)C2(C(F)(F)F)CC(F)(F)C2)C2CC2)CCCCCCCNC(=O)[C@H](Cc2cc(Cl)ccc2C2=C[C@H]3CC[C@@H](C2)N3C(=O)C(C)C)N(C)C1=O [Example 313] ({cBuCO(3,3-F2-1-CF3)}-[Pro(trans-4-F)][Gly(cPr)][NMe(hhhLys)]L[X110]; lactam 3-C)",20 nM,10 nM,640 nM,36600 nM,10 nM,20 nM,–
